Test results published in publication PMC9120478 (Nature Communications, 2022).
Substitutions are numbered along the chain they refer to. Values joined by “and” are separate entries in the source; they are usually repeats but may differ in a detail not shown here. Equal values may be shown once. Read-outs that look alike come from different tables or passages of the source.

Experiments:
TRPV3-Y594A = biological target: T1, TRPV3-Y594A (Mus musculus, UniProt Q8K424, Y594A); assay: Fura-2 ratiometric Ca2+ measurement, control application of 2-APB; format: cell-based
T1 construct: expressed in transfected cells; host or cells: HEK 293 S GnTI- cells (baculovirus transduction)
T1 sequence (Q8K424 1-791 Y594A): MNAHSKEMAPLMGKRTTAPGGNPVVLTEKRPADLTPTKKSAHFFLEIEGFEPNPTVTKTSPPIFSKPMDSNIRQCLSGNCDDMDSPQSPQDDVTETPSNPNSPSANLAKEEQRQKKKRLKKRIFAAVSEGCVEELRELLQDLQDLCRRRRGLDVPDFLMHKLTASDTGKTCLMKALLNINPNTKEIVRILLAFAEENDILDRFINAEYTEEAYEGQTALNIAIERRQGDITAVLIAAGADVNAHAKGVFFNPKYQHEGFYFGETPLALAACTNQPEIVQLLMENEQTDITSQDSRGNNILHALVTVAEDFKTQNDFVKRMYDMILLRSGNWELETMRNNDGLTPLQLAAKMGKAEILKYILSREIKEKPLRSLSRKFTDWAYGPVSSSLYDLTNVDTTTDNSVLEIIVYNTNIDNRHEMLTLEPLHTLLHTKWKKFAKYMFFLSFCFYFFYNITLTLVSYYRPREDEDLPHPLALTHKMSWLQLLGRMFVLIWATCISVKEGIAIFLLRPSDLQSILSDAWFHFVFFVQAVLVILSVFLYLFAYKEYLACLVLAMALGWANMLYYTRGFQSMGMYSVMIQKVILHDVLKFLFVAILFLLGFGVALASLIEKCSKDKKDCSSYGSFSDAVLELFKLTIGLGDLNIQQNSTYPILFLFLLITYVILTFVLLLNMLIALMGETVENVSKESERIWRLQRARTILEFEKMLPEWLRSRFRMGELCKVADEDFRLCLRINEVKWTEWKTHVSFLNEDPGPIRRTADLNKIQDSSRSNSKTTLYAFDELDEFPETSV
Description: The portal site in TRPV3 has not been previously shown to bind small-molecule inhibitors. This site, however, was originally proposed to be an entry pathway for local anesthetics to the pore of sodium channels[47]–[49] and found to accommodate cannabidiol in TRPV2, a closely-related representative of the vanilloid subfamily of TRP channels. […] We concluded that the Y594A mutation altered gating properties of TRPV3 and excluded this mutant from further analysis.
GFP-free C-terminally strep-tagged wild-type TRPV3, TRPV3-Y564A, TRPV3-Y594A, TRPV3-F633A, TRPV3-I663W, and TRPV3-F666A were expressed in HEK 293 S GnTI^− cells as previously described[41],[42],[53]. In short, 48 h after transduction, 1-ml aliquots of cell suspension were collected by centrifugation at 550 g for 5 min using an Eppendorf 5424 centrifuge. […] The washed cell pellets were kept on ice in the dark before taking an aliquot for fluorescence measurements. […] Fluorescence measurements were conducted using a QuantaMaster 40 spectrofluorometer (Photon Technology International) at room temperature in a quartz cuvette under constant stirring. […] Changes in intracellular Ca^2+ were measured by taking the ratio of fluorescence emitted at 510 nm at the excitation wavelength of 340 nm and 380 nm. […]

F666A mutant TRPV3 = biological target: T2, F666A mutant TRPV3 (Mus musculus, UniProt Q8K424, F666A); assay: Fura-2 ratiometric Ca2+ measurement, activation by 2-APB; format: cell-based; details: for F340/F380 change normalized to approximated maximal value at saturating 2-APB: F666A
T2 construct: expressed in transfected cells; host or cells: HEK 293 S GnTI- cells (baculovirus transduction)
T2 sequence (Q8K424 1-791 F666A): T1 sequence (Q8K424 1-791 Y594A) with A594Y, F666A
Experimental: GFP-free C-terminally strep-tagged wild-type TRPV3, TRPV3-Y564A, TRPV3-Y594A, TRPV3-F633A, TRPV3-I663W, and TRPV3-F666A were expressed in HEK 293 S GnTI^− cells as previously described[41],[42],[53]. In short, 48 h after transduction, 1-ml aliquots of cell suspension were collected by centrifugation at 550 g for 5 min using an Eppendorf 5424 centrifuge. The cells were resuspended in the pre-warmed modified HEPES-buffered saline (HBS) containing 118 mM NaCl, 4.8 mM KCl, 1 mM MgCl2, 5 mM D-glucose, and 10 mM HEPES pH 7.4 and 5 μg/ml Fura-2 AM (Thermo Fisher Scientific) and incubated for 45 min at 37 °C. The Fura-2-loaded cells were then centrifuged for 5 min at 550 g, resuspended in the pre-warmed, modified HBS and incubated again for 30 min at 37 °C in the dark. The cells were subsequently pelleted and washed twice in the modified HBS. The washed cell pellets were kept on ice in the dark before taking an aliquot for fluorescence measurements. […] We used the lower CaCl2 concentration than before[42],[28] (2.5 mM) to minimize non-specific effects, which often appeared as a drift in the Fura-2 signal at high Ca^2+ concentration, presumably due to cell death as a result of calcium overload. Fluorescence measurements were conducted using a QuantaMaster 40 spectrofluorometer (Photon Technology International) at room temperature in a quartz cuvette under constant stirring. After 60 s since the beginning, the recording was paused and 2-APB was added. After the addition of 2-APB, the recording was continued for the additional 140 s. Changes in intracellular Ca^2+ were measured by taking the ratio of fluorescence emitted at 510 nm at the excitation wavelength of 340 nm and 380 nm. […] The data were processed using Origin 9.0 (OriginLab) software.

wild-type TRPV3 = details: cited from earlier work; for F340/F380 change normalized to approximated maximal value at saturating 2-APB: WT, published before

NCCOB(c1ccccc1)c1ccccc1 [2-APB]
change in F340/F380 on control application of 2-APB, Y594A (TRPV3-Y594A): barely detectable changes
F340/F380 change normalized to approximated maximal value at saturating 2-APB (F666A mutant TRPV3; 2-APB Conc 0.1, single experiments): 0.01591 and 0.01218 and 0.01441
F340/F380 change normalized to approximated maximal value at saturating 2-APB (F666A mutant TRPV3; 2-APB Conc 0.3, single experiments): 0.0415 and 0.03827 and 0.03455
F340/F380 change normalized to approximated maximal value at saturating 2-APB (F666A mutant TRPV3; 2-APB Conc 1, single experiments): 0.08549 and 0.07903 and 0.08027
F340/F380 change normalized to approximated maximal value at saturating 2-APB (F666A mutant TRPV3; 2-APB Conc 3, single experiments): 0.1735 and 0.1693 and 0.1578
F340/F380 change normalized to approximated maximal value at saturating 2-APB (F666A mutant TRPV3; 2-APB Conc 10, single experiments): 0.3611 and 0.3532 and 0.3454
F340/F380 change normalized to approximated maximal value at saturating 2-APB (F666A mutant TRPV3; 2-APB Conc 30, single experiments): 0.6328 and 0.6126 and 0.5903
F340/F380 change normalized to approximated maximal value at saturating 2-APB (F666A mutant TRPV3; 2-APB Conc 100, single experiments): 0.7746 and 0.7881 and 0.7839
F340/F380 change normalized to approximated maximal value at saturating 2-APB (F666A mutant TRPV3; 2-APB Conc 300, single experiments): 0.7811 and 0.756 and 0.8326
nHill of activation curve, F666A (F666A mutant TRPV3; n = 3): 0.80 ± 0.02
EC50 (F666A mutant TRPV3; n = 3, read-out: EC50, 2-APB-induced activation of F666A): 20.7 ± 0.9 µM
F340/F380 change normalized to approximated maximal value at saturating 2-APB (wild-type TRPV3; 2-APB Conc 3.2, single experiments): 0.1142 and 0.08511 and 0.06324 and 0.1042
F340/F380 change normalized to approximated maximal value at saturating 2-APB (wild-type TRPV3; 2-APB Conc 102.4, single experiments): 0.8797 and 0.5873 and 0.8594 and 0.9531
F340/F380 change normalized to approximated maximal value at saturating 2-APB (wild-type TRPV3; 2-APB Conc 204.8, single experiments): 0.97 and 1 and 0.6572 and 1.041
nHill of activation curve, wild-type TRPV3 (wild-type TRPV3; n = 4, published before): 1.19 ± 0.09
EC50 (wild-type TRPV3; n = 4, published before, read-out: EC50, 2-APB-induced activation of wild-type TRPV3): 27.4 ± 4.5 µM
